Experiments:
[1] = molecular target: T1, Galactosylgalactosylxylosylprotein 3-beta-glucuronosyltransferase 3 (Homo sapiens, UniProt O94766); test: Binding affinity to CM5 sensor chip immobilized human B3GAT3 assessed as dissociation constant by SPR analysis
T1 sequence (O94766 whole entry): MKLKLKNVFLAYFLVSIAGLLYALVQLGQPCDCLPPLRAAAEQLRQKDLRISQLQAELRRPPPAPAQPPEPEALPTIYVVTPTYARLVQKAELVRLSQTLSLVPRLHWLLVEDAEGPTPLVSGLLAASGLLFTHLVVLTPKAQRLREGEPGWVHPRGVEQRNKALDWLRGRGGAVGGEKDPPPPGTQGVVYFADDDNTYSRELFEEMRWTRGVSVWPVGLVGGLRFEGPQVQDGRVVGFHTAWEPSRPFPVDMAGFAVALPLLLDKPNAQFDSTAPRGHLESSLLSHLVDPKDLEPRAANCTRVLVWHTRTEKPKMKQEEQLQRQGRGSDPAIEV

[2] = molecular target: T1, Galactosylgalactosylxylosylprotein 3-beta-glucuronosyltransferase 3; test: Binding affinity to biotinylated B3GAT3 (unknown origin) assessed as dissociation constant by biolayer interferometry (BLI) analysis
MHCC97H [3] = test: Cytotoxicity against (shRNA)-Ctrl transfected human MHCC97H cells assessed as cell viability measured after 72 hrs by CCK8 assay
MHCC97H [4] = test: Cytotoxicity against (shRNA)-mediated B3GAT3 KO human MHCC97H cells assessed as cell viability measured after 72 hrs by CCK8 assay
MHCC97H [5] = test: In vivo-antitumor activity against human MHCC97H cells xenografted BALB/c mouse model assessed as tumor growth inhibitor at 10 mg/kg, IG once daily measured after 31 days relative to control; conditions: po, 744 h, read-out: TGI
MHCC97H [6] = test: In vivo-antitumor activity against human MHCC97H cells xenografted BALB/c mouse model assessed as tumor growth inhibitor at 20 mg/kg, IG once daily measured after 31 days relative to control; conditions: po, 744 h, read-out: TGI
HCCLM3 [7] = test: In vivo-antitumor activity against human HCCLM3 cells xenografted BALB/c mouse model assessed as tumor growth inhibitor at 10 mg/kg, IG once daily measured after 31 days relative to control; conditions: HCCLM3, po, 744 h, read-out: TGI
[8] = Half life in BALB/c mouse at 1.2 mg/kg, iv measured upto 24 hrs by LC-MS/MS analysis; conditions: in vivo
[9] = Clearance in BALB/c mouse at 1.2 mg/kg, iv measured upto 24 hrs by LC-MS/MS analysis; conditions: in vivo
[10] = Half life in BALB/c mouse at 10 mg/kg, po measured upto 24 hrs by LC-MS/MS analysis; conditions: in vivo
[11] = Clearance in BALB/c mouse at 10 mg/kg, po measured upto 24 hrs by LC-MS/MS analysis; conditions: in vivo
MHCC97H [12] = test: In vivo-antitumor activity against human MHCC97H cells xenografted BALB/c mouse model assessed as tumor growth inhibitor at 5 mg/kg, IG once daily measured after 31 days relative to control; conditions: po, 744 h, read-out: TGI
HCCLM3 [13] = test: In vivo-antitumor activity against human HCCLM3 cells xenografted BALB/c mouse model assessed as reduction in tumor weight at 5 mg/kg, IG once daily measured after 31 days relative to control; conditions: HCCLM3, po, 744 h, read-out: INH
MHCC97H [14] = test: cells; conditions: Homo sapiens, 72 h
Description: Antitumor activity against human MHCC97H cells assessed as inhibition of cell growth measured after 72 hrs by CCK-8 assay

HCCLM3 [15] = test: cells; conditions: Homo sapiens, HCCLM3, 72 h
Description: Antitumor activity against human HCCLM3 cells assessed as inhibition of cell growth measured after 72 hrs by CCK-8 assay

THLE-2 = test: cells; conditions: Homo sapiens, THLE-2, 72 h
Description: Antitumor activity against human THLE-2 cells assessed as inhibition of cell proliferation measured after 72 hrs by CCK-8 assay

MHCC97H [16] = test: cells; conditions: Homo sapiens, 72 h; remark: listed apart in the source
Description: Antitumor activity against human MHCC97H cells assessed as inhibition of cell proliferation measured after 72 hrs by CCK-8 assay

HCCLM3 [17] = test: cells; conditions: Homo sapiens, HCCLM3, 72 h; remark: listed apart in the source
Description: Antitumor activity against human HCCLM3 cells assessed as inhibition of cell proliferation measured after 72 hrs by CCK-8 assay

Huh-7 = test: cells; conditions: Homo sapiens, Huh-7, 72 h
Description: Antitumor activity against human Huh-7 cells assessed as inhibition of cell proliferation measured after 72 hrs by CCK-8 assay

Hep 3B2 = test: cells; conditions: Homo sapiens, Hep3B, 72 h
Description: Antitumor activity against human Hep3B cells assessed as inhibition of cell proliferation measured after 72 hrs by CCK-8 assay

SNU-387 = test: cells; conditions: Homo sapiens, SNU-387, 72 h
Description: Antitumor activity against human SNU-387 cells assessed as inhibition of cell proliferation measured after 72 hrs by CCK-8 assay

PLC-PRF-5 = test: cells; conditions: Homo sapiens, PLC-PRF-5, 72 h
Description: Antitumor activity against human PLC-PRF-5 cells assessed as inhibition of cell proliferation measured after 72 hrs by CCK-8 assay

Hepa 1-6 = test: cells; conditions: Mus musculus, Hepa1-6, 72 h
Description: Antitumor activity against mouse Hepa1-6 cells assessed as inhibition of cell proliferation measured after 72 hrs by CCK-8 assay

NCI-H446 = test: cells; conditions: Homo sapiens, NCI-H446, 72 h
Description: Anti-tumor activity against human NCI-H446 cells assessed as inhibition of cell growth measured after 72 hrs by CCK-8 assay

NCI-H1650 = test: cells; conditions: Homo sapiens, NCI-H1650, 72 h
Description: Anti-tumor activity against human NCI-H1650 cells assessed as inhibition of cell growth measured after 72 hrs by CCK-8 assay

Calu-3 = test: cells; conditions: Homo sapiens, Calu-3, 72 h
Description: Anti-tumor activity against human Calu-3 cells assessed as inhibition of cell growth measured after 72 hrs by CCK-8 assay

PC-3 = test: cells; conditions: Homo sapiens, PC-3, 72 h
Description: Anti-tumor activity against human PC-3 cells assessed as inhibition of cell growth measured after 72 hrs by CCK-8 assay

SK-OV-3 = test: cells; conditions: Homo sapiens, SK-OV-3, 72 h
Description: Anti-tumor activity against human SK-OV-3 cells assessed as inhibition of cell growth measured after 72 hrs by CCK-8 assay

AGS = test: cells; conditions: Homo sapiens, 72 h
Description: Anti-tumor activity against human AGS cells assessed as inhibition of cell growth measured after 72 hrs by CCK-8 assay

MKN-45 = test: cells; conditions: Homo sapiens, MKN-45, 72 h
Description: Anti-tumor activity against human MKN-45 cells assessed as inhibition of cell growth measured after 72 hrs by CCK-8 assay

HT-29 = test: cells; conditions: Homo sapiens, HT-29, 72 h
Description: Anti-tumor activity against human HT-29 cells assessed as inhibition of cell growth measured after 72 hrs by CCK-8 assay

SW-620 = test: cells; conditions: Homo sapiens, SW-620, 72 h
Description: Anti-tumor activity against human SW620 cells assessed as inhibition of cell growth measured after 72 hrs by CCK-8 assay

MDA-MB-231 = test: cells; conditions: Homo sapiens, MDA-MB-231, 72 h
Description: Anti-tumor activity against human MDA-M8-231 cells assessed as inhibition of cell growth measured after 72 hrs by CCK-8 assay

HCC1937 = test: cells; conditions: Homo sapiens, HCC1937, 72 h
Description: Anti-tumor activity against human HCC1937 cells assessed as inhibition of cell growth measured after 72 hrs by CCK-8 assay

U-251 = test: cells; conditions: Homo sapiens, U-251, 72 h
Description: Anti-tumor activity against human U-251MG cells assessed as inhibition of cell growth measured after 72 hrs by CCK-8 assay

H4 = test: cells; conditions: Homo sapiens, H4, 72 h
Description: Anti-tumor activity against human H4 cells assessed as inhibition of cell growth measured after 72 hrs by CCK-8 assay

U-937 = test: cells; conditions: Homo sapiens, U-937, 72 h
Description: Anti-tumor activity against human U-937 cells assessed as inhibition of cell growth measured after 72 hrs by CCK-8 assay

THP-1 = test: cells; conditions: Homo sapiens, THP-1, 72 h
Description: Anti-tumor activity against human THP-1 cells assessed as inhibition of cell growth measured after 72 hrs by CCK-8 assay

K562 = test: cells; conditions: Homo sapiens, K562, 72 h
Description: Anti-tumor activity against human K562 cells assessed as inhibition of cell growth measured after 72 hrs by CCK-8 assay

MEG-01 = test: cells; conditions: Homo sapiens, MEG-01, 72 h
Description: Anti-tumor activity against human MEG-01 cells assessed as inhibition of cell growth measured after 72 hrs by CCK-8 assay

Jurkat = test: cells; conditions: Homo sapiens, 72 h
Description: Anti-tumor activity against human Jurkat cells assessed as inhibition of cell growth measured after 72 hrs by CCK-8 assay

in vivo [18] = conditions: BALB/c, mouse, iv, 1.2 mg/kg
Description: AUC in BALB/c mouse at 1.2 mg/kg, iv measured upto 24 hrs by LC-MS/MS analysis

in vivo [19] = conditions: BALB/c, mouse, iv, 1.2 mg/kg; remark: listed apart in the source
Description: Tmax in BALB/c mouse at 1.2 mg/kg, iv measured upto 24 hrs by LC-MS/MS analysis

in vivo [20] = conditions: BALB/c, mouse, iv, 1.2 mg/kg; remark: listed apart in the source
Description: Cmax in BALB/c mouse at 1.2 mg/kg, iv measured upto 24 hrs by LC-MS/MS analysis

in vivo [21] = conditions: BALB/c, mouse, po, 10 mg/kg
Description: AUC in BALB/c mouse at 10 mg/kg, po measured upto 24 hrs by LC-MS/MS analysis

in vivo [22] = conditions: BALB/c, mouse, po, 10 mg/kg; remark: listed apart in the source
Description: Tmax in BALB/c mouse at 10 mg/kg, po measured upto 24 hrs by LC-MS/MS analysis

in vivo [23] = conditions: BALB/c, mouse, po, 10 mg/kg; remark: listed apart in the source
Description: Cmax in BALB/c mouse at 10 mg/kg, po measured upto 24 hrs by LC-MS/MS analysis

in vivo [24] = conditions: BALB/c, mouse, po, 10 mg/kg; remark: listed apart in the source
Description: Oral bioavailability in BALB/c mouse at 10 mg/kg measured upto 24 hrs by LC-MS/MS analysis

in vitro [25] = conditions: human, liver microsomes
Description: Metabolic stability in human liver microsomes assessed as half life at 0.02 uM measured upto 60 mins by LC-MS/MS analysis

in vitro [26] = conditions: rat, liver microsomes
Description: Metabolic stability in rat liver microsomes assessed as half life at 0.02 uM measured upto 60 mins by LC-MS/MS analysis

in vitro [27] = conditions: mouse, liver microsomes
Description: Metabolic stability in mouse liver microsomes assessed as half life at 0.02 uM measured upto 60 mins by LC-MS/MS analysis

Kd [1]: 3.96 µM
Kd [2]: 6.62 µM
half-life at 24 h [8]: 46.2 min
clearance at 24 h [9]: 10 mL/min/kg
half-life at 24 h [10]: 251 min
CL/F at 24 h [11]: 20 mL/min/kg
IC50 (MHCC97H [14]): 6.53 µM
IC50 (HCCLM3 [15]): 6.22 µM
IC50 (THLE-2): > 20 µM
IC50 (MHCC97H [16]): 18.9 µM
IC50 (HCCLM3 [17]): 18.4 µM
IC50 (Huh-7): 12.5 µM
IC50 (Hep 3B2): 12.2 µM
IC50 (SNU-387): 11.7 µM
IC50 (PLC-PRF-5): 6.52 µM
IC50 (Hepa 1-6): 6.22 µM
IC50 (NCI-H446): 11.6 µM
IC50 (NCI-H1650): 21.6 µM
IC50 (Calu-3): 41.6 µM
IC50 (PC-3): 13.7 µM
IC50 (SK-OV-3): 98.7 µM
IC50 (AGS): 5.33 µM
IC50 (MKN-45): 13.9 µM
IC50 (HT-29): 4.71 µM
IC50 (SW-620): 8.66 µM
IC50 (MDA-MB-231): 12.3 µM
IC50 (HCC1937): 47.9 µM
IC50 (U-251): 6.16 µM
IC50 (H4): 6.65 µM
IC50 (U-937): 5.99 µM
IC50 (THP-1): 23.9 µM
IC50 (K562): 8.25 µM
IC50 (MEG-01): 11.5 µM
IC50 (Jurkat): 6.69 µM
AUC at 24 h (in vivo [18]): 1850 ng·h/mL
Tmax at 24 h (in vivo [19]): 4.8 min
Cmax at 24 h (in vivo [20]): 3350 ng/mL
AUC at 24 h (in vivo [21]): 9520 ng·h/mL
Tmax at 24 h (in vivo [22]): 13.2 min
Cmax at 24 h (in vivo [23]): 9140 ng/mL
bioavailability at 24 h (in vivo [24]): 66.4%
half-life at 1 h, 0.02 µM (in vitro [25]): 17 min
half-life at 1 h, 0.02 µM (in vitro [26]): 25.9 min
half-life at 1 h, 0.02 µM (in vitro [27]): 37.9 min
SMILES: COC(=O)c1ccc2[nH]cc(C(=O)C(=O)NC3CCN(c4ccc(C)cc4Cl)C3=O)c2c1 (stereo unspecified)
IC50 (MHCC97H [3]): 6.92 µM
IC50 (MHCC97H [4]): 17 µM
inhibition in vivo at 10 mg/kg (MHCC97H [5]): 70%
inhibition in vivo at 20 mg/kg (MHCC97H [6]): 73.5%
inhibition in vivo at 10 mg/kg (HCCLM3 [7]): 59%
inhibition in vivo at 5 mg/kg (MHCC97H [12]): 23.4%
inhibition in vivo at 5 mg/kg (HCCLM3 [13]): 58.8%
